Measured values taken from ChEMBL document CHEMBL1201862, “PubChem BioAssay data set” (2004).
Calls of active or inactive are those of the source.

Experiments:
Streptokinase A = target: T1, Streptokinase A (Streptococcus pyogenes serotype M1, UniProt P10520); assay: S. pyogenes streptokinase expression inhibitors, potency, dose response, plasminogen activation absorbance, OD405 (AID 1914); format: functional, Streptococcus pyogenes M1 GAS;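 further: secreted streptokinase activity via plasminogen activation per viability signal from cell pellet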
T1 sequence (P10520 whole entry): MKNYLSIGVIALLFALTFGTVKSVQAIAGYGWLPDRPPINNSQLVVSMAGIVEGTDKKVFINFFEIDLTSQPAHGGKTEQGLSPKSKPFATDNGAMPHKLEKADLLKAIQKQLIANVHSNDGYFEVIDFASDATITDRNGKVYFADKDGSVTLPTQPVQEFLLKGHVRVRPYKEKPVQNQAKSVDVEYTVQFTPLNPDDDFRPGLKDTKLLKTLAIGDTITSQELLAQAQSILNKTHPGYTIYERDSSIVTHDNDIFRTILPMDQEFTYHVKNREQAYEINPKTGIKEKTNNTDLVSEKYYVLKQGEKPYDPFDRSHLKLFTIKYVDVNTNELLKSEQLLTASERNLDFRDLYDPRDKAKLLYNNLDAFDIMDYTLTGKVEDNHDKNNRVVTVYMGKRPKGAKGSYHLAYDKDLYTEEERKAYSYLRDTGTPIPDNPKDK

[1] = target: T2, Mannose-6-phosphate isomerase (Homo sapiens, UniProt P34949); assay: human PMI inhibitors, high substrate, primary screen, biochemical, fluorescence intensity, high mannose 6-phosphate (AID 1220)
T2 sequence (P34949 whole entry): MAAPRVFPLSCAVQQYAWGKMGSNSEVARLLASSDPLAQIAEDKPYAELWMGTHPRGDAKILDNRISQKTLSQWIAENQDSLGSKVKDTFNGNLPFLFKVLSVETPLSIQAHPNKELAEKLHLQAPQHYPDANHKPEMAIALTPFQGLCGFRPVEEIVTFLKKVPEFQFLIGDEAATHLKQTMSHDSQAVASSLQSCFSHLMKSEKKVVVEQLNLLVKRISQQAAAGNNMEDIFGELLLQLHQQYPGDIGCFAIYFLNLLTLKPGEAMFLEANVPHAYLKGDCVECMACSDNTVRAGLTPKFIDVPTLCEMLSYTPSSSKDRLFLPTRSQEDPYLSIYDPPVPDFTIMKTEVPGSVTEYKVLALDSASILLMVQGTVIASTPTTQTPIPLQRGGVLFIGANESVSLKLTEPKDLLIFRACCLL

SUMO-activating enzyme = SUMO-activating enzyme (Homo sapiens, UniProt Q9UBT2); assay: SUMOylation inhibitor hit validation, confirmation, SUMOylation inhibitor project, biochemical, AlphaScreen (AID 2018); format: functional
[2] = CEM21 lymphoblast cell cytotoxicity, dose response, cytotoxicity control for viral fusion inhibitor project, CellTiter-Glo luminescence, cherry-picked (AID 652042); format: functional, cell-based;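 further: potency for signal decrease meaning cytotoxicity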
[3] = inhibitors of clade B AD8 Env fusion, dose response, cell-based, cherry-pick (AID 652062); format: functional;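 further: luciferase signal from cell-cell fusion driven by HIV-1 clade B AD8 Env; potency is for inhibitors of fusion seen as a drop in luminescence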
[4] = inhibitors of firefly luciferase expression or activity, dose response, H4 neuroglioma cells, luminescence (AID 1990); format: functional, cell-based
[5] = target: T3, RNA-binding protein pos-1 (Caenorhabditis elegans, UniProt G5EF15); assay: inhibitors of POS-1/mex-3 RNA binding, dose response, biochemical, fluorescence polarization (AID 1964);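 further: purified POS-1 fused to maltose binding protein made in E. coli; potency of compounds blocking POS-1 binding to fluorescent RNA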
T3 sequence (G5EF15 whole entry): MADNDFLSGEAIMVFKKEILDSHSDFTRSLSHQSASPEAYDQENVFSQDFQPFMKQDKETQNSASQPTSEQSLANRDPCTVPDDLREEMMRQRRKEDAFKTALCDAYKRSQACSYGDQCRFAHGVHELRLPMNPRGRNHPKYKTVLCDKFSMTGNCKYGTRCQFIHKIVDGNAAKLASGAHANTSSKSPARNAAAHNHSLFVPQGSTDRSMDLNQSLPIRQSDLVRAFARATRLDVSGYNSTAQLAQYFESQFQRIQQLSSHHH

[6] = target: T4, Apoptotic protease-activating factor 1 (Homo sapiens, UniProt O14727); assay: SAR analysis of small molecule inhibitors of Apaf-1 in a Fluorescent assay.; format: functional; details: read-out: IC50_Mean
T4 sequence (O14727 whole entry): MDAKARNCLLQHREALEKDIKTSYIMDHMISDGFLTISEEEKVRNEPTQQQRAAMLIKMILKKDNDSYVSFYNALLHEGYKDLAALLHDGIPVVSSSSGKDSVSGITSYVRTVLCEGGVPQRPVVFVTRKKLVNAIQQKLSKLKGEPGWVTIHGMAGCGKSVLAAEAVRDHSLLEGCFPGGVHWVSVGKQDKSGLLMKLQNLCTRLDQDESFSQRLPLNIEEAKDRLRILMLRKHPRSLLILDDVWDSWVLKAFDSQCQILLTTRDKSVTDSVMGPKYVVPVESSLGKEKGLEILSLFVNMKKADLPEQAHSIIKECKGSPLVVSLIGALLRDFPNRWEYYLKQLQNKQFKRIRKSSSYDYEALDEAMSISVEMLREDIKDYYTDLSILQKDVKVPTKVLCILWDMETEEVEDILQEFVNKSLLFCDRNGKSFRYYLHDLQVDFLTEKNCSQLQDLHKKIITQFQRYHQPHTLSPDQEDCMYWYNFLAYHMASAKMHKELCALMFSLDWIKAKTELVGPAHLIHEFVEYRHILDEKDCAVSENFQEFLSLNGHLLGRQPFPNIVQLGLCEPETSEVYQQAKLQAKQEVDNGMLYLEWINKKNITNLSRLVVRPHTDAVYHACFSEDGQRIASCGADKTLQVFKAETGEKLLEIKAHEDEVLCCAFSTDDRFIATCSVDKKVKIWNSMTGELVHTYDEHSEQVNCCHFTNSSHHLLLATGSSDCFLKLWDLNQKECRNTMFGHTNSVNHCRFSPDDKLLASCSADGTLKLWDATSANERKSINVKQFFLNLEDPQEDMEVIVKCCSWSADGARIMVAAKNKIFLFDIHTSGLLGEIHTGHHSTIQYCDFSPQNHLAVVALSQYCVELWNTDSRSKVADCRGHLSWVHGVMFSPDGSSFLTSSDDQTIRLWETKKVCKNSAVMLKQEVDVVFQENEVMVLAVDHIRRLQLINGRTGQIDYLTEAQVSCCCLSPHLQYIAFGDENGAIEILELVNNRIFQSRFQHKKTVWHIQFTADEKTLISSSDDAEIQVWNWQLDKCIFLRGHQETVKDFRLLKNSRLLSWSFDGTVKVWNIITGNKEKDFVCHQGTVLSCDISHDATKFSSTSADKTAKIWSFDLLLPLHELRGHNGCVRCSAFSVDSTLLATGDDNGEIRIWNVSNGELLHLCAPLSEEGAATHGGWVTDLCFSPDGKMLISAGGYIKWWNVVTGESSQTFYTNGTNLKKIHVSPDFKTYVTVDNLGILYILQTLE

[7] = HepG2 cell cytotoxicity, dose response, cytotoxicity control for Shn3 inhibitor project, CellTiter-Glo, cherry-picked (AID 624134); format: functional, cell-based
A-375 = assay: MITF: Counter assay: A375 proliferation Measured in Cell-Based System Using Plate Reader - 2084-03_Inhibitor_Dose_DryPowder_Activity. [Related pubchem assays (depositor defined):AID488944]; format: functional; details: Homo sapiens

Sequence of SUMO-activating enzyme (Q9UBE0 whole entry, the tested form may be a part): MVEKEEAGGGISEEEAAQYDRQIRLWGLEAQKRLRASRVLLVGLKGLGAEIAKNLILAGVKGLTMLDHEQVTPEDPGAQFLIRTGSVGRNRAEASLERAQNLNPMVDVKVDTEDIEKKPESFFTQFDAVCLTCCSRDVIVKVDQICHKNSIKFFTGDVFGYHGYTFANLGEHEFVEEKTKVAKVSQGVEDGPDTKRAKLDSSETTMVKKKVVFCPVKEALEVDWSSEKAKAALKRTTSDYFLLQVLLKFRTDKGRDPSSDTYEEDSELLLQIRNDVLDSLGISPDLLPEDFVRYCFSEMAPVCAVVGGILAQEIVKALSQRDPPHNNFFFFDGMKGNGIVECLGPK
Sequence of SUMO-activating enzyme (Q9UBT2 whole entry, the tested form may be a part): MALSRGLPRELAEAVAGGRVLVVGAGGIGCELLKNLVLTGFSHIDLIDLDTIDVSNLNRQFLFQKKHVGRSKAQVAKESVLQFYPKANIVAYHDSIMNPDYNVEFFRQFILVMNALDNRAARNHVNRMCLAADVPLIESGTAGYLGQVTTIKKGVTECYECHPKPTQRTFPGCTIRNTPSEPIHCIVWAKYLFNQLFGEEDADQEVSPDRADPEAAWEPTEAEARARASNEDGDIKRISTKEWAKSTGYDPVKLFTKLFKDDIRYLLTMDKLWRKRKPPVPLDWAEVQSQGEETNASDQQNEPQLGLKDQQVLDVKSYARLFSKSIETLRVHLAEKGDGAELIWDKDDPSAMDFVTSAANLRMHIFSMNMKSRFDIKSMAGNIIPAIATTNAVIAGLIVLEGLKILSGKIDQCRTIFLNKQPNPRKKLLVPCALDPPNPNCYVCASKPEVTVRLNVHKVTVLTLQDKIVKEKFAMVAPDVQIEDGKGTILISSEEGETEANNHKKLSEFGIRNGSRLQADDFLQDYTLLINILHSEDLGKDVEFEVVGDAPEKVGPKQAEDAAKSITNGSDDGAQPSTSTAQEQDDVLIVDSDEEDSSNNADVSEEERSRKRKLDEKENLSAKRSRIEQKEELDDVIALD

For `CCOC(=O)C1=C(c2ccc(OC)cc2)C(=O)c2ccccc2C1=O`, which EC50 (Streptokinase A) is on record?
The EC50 was > 150 µM (not active).

And the IC50 [1]?
The IC50 was > 50 µM (not active).

With `CCCCn1c(NC(=O)c2ccccc2Cl)c(C#N)c2nc3ccccc3nc21` as the compound, how does the IC50 (SUMO-activating enzyme) read?
The IC50 was 0.89 µM (active).

Which results are given for `O=C1C(=O)c2ccccc2-c2ccccc21` [9,10-PHENANTHRENEQUINONE]?
AC50 [2]: 1.93 µM (active); AC50 [3]: 2.66 µM (active)

Which EC50 [4] does the source give for `O=C1c2cc(F)ccc2-n2c1nc1ccccc1c2=O` here?
The EC50 was 10 µM (inconclusive).

And the EC50 [5]?
The EC50 was > 300 µM (not active).

What about the IC50 [6] of the same compound?
Its IC50 is 67.7 µM (active).

For `CCC(=O)OCCNc1cc(Sc2nccn2C)c2nonc2c1[N+](=O)[O-]`, which AC50 [7] is on record?
The AC50 was 16.1 µM (active).

Which AC50 (A-375) does the source give for `O=C1C=C(N(CCO)Cc2ccccc2)c2ccccc2C1=O` here?
Its AC50 is 37.8 µM (active).
